Results taken from patent publication US20210122730A1, “GLUCOCORTICOID RECEPTOR MODULATORS” (ORIC Pharmaceuticals, Inc., priority 2017, published 2021).

Target: T1, GR (Homo sapiens, UniProt P04150)
T1 construct: expressed in transfected cells; host or cells: CHO-K1
T1 sequence (P04150 1-777): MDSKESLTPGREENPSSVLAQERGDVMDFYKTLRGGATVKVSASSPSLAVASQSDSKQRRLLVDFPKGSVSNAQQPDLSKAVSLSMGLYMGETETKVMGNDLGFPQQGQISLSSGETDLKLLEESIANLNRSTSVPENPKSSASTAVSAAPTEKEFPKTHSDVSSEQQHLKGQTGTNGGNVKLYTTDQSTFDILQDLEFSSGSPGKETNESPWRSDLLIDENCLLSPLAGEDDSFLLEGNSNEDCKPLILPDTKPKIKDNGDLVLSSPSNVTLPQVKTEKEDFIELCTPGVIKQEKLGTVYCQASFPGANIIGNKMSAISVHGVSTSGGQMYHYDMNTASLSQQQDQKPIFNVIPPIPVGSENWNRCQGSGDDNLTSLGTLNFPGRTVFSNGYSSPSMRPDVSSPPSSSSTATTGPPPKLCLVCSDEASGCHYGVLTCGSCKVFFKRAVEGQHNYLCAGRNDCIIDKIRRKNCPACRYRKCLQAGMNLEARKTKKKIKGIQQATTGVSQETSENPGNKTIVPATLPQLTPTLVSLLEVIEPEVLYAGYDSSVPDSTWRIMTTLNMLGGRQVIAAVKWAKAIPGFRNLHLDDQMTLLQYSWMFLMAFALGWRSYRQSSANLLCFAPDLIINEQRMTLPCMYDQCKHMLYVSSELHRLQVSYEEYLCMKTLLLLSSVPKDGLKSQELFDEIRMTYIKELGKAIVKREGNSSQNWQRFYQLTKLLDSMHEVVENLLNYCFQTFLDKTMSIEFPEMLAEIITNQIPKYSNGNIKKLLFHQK
Assay: In Vitro GR Luciferase Reporter Assay (antagonist mode, CHO-K1-GR-MMTV-Luc reporter cells)
Format: cell-based
Details: antagonist mode, 10 nM Dexamethasone
In short: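 Antagonist mode: compounds (8 serial 1:5 dilutions) added to GR-MMTV-luciferase CHO-K1 reporter cells co-exposed to 10 nM dexamethasone final, in phenol red-free DMEM plus 10% CSS. After roughly 18-24 h at 37° C, OneGlo luminescence read and IC50 calculated.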

`Cn1cnc(S(=O)(=O)N(CCF)[C@H]2CCC3=Cc4c(cnn4-c4ccc(F)cc4)C[C@]3(C(=O)c3cc(C(F)(F)F)ccn3)C2)n1` [Example 385, N-(2-fluoroethyl)-N-((4aS,6S)-1-(4-fluorophenyl)-4a-(4-(trifluoromethyl)picolinoyl)-4,4a,5,6,7,8-hexahydro-1H-benzo[f]indazol-6-yl)-1-methyl-1H-1,2,4-triazole-3-sulfonamide] and `Cn1cnc(S(=O)(=O)N(CCF)[C@H]2CCC3=Cc4c(cnn4-c4ccc(F)cc4)C[C@]3(C(=O)c3cc(F)ccn3)C2)n1` [Example 392, N-(2-fluoroethyl)-N-((4aS,6S)-1-(4-fluorophenyl)-4a-(4-fluoropicolinoyl)-4,4a,5,6,7,8-hexahydro-1H-benzo[f]indazol-6-yl)-1-methyl-1H-1,2,4-triazole-3-sulfonamide] cannot be ordered by IC50: at most 100 nM for the first, at most 100 nM for the second.

`O=C(c1ncc(C(F)(F)F)s1)[C@]12Cc3cnn(-c4ccc(F)cc4)c3C=C1CC[C@H](N(CCF)S(=O)(=O)c1ccc(F)cc1)C2` [Example 386, 4-fluoro-N-(2-fluoroethyl)-N-((4aS,6S)-1-(4-fluorophenyl)-4a-(5-(trifluoromethyl)thiazole-2-carbonyl)-4,4a,5,6,7,8-hexahydro-1H-benzo[f]indazol-6-yl)benzenesulfonamide] and `COCCOCCN([C@H]1CCC2=Cc3c(cnn3-c3ccc(F)cc3)C[C@]2(C(=O)c2ncc(C(F)(F)F)s2)C1)S(=O)(=O)c1ccc(F)cc1` [Example 391, 4-fluoro-N-((4aS,6S)-1-(4-fluorophenyl)-4a-(5-(trifluoromethyl)thiazole-2-carbonyl)-4,4a,5,6,7,8-hexahydro-1H-benzo[f]indazol-6-yl)-N-(2-(2-methoxyethoxy)ethyl)benzene-sulfonamide] cannot be ordered by IC50: at most 100 nM for the first, at most 100 nM for the second.

`O=C(c1cc(C(F)(F)F)ccn1)[C@]12Cc3cnn(-c4ccc(F)cc4)c3C=C1CC[C@H](N(CCF)S(=O)(=O)c1ccc(F)cc1)C2` [Example 387, 4-fluoro-N-(2-fluoroethyl)-N-((4aS,6S)-1-(4-fluorophenyl)-4a-(4-(trifluoromethyl)picolinoyl)-4,4a,5,6,7,8-hexahydro-1H-benzo[f]indazol-6-yl)benzenesulfonamide] and `O=C(c1cc(F)ccn1)[C@]12Cc3cnn(-c4ccc(F)cc4)c3C=C1CC[C@H](N(CCF)S(=O)(=O)c1ccc(F)cc1)C2` [Example 389, 4-fluoro-N-(2-fluoroethyl)-N-((4aS,6S)-1-(4-fluorophenyl)-4a-(4-fluoropicolinoyl)-4,4a,5,6,7,8-hexahydro-1H-benzo[f]indazol-6-yl)benzenesulfonamide] cannot be ordered by IC50: at most 100 nM for the first, at most 100 nM for the second.

`Cn1cnc(S(=O)(=O)N(CCC#N)[C@H]2CCC3=Cc4c(cnn4-c4ccc(F)cc4)C[C@]3(C(=O)c3ncc(C(F)(F)F)s3)C2)n1` [Example 388, N-(2-cyanoethyl)-N-((4aS,6S)-1-(4-fluorophenyl)-4a-(5-(trifluoromethyl)thiazole-2-carbonyl)-4,4a,5,6,7,8-hexahydro-1H-benzo[f]indazol-6-yl)-1-methyl-1H-1,2,4-triazole-3-sulfonamide] and `COCCN([C@H]1CCC2=Cc3c(cnn3-c3ccc(F)cc3)C[C@]2(C(=O)c2ncc(C(F)(F)F)s2)C1)S(=O)(=O)c1ncn(C)n1` [Example 398, N-((4aS,6S)-1-(4-fluorophenyl)-4a-(5-(trifluoromethyl)thiazole-2-carbonyl)-4,4a,5,6,7,8-hexahydro-1H-benzo[f]indazol-6-yl)-N-(2-methoxyethyl)-1-methyl-1H-1,2,4-triazole-3-sulfonamide] cannot be ordered by IC50: at most 100 nM for the first, at most 100 nM for the second.

`O=C(c1cc(Cl)ccn1)[C@]12Cc3cnn(-c4ccc(F)cc4)c3C=C1CC[C@H](N(CCF)S(=O)(=O)c1ccc(F)cc1)C2` [Example 390, N-((4aS,6S)-4a-(4-chloropicolinoyl)-1-(4-fluorophenyl)-4,4a,5,6,7,8-hexahydro-1H-benzo[f]indazol-6-yl)-4-fluoro-N-(2-fluoroethyl)benzenesulfonamide] and `Cn1ccc(S(=O)(=O)N(CCF)[C@H]2CCC3=Cc4c(cnn4-c4ccc(F)cc4)C[C@]3(C(=O)c3cc(Cl)ccn3)C2)n1` [Example 403, N-((4aS,6S)-4a-(4-chloropicolinoyl)-1-(4-fluorophenyl)-4,4a,5,6,7,8-hexahydro-1H-benzo[f]indazol-6-yl)-N-(2-fluoroethyl)-1-methyl-1H-pyrazole-3-sulfonamide] cannot be ordered by IC50: at most 100 nM for the first, at most 100 nM for the second.

`Cn1cnc(S(=O)(=O)N(CCF)[C@H]2CCC3=Cc4c(cnn4-c4ccc(F)cc4)C[C@]3(C(=O)c3cc(Cl)ccn3)C2)n1` [Example 393, N-((4aS,6S)-4a-(4-chloropicolinoyl)-1-(4-fluorophenyl)-4,4a,5,6,7,8-hexahydro-1H-benzo[f]indazol-6-yl)-N-(2-fluoroethyl)-1-methyl-1H-1,2,4-triazole-3-sulfonamide] and `Cn1ccc(S(=O)(=O)N(CCF)[C@H]2CCC3=Cc4c(cnn4-c4ccc(F)cc4)C[C@]3(C(=O)c3cc(F)ccn3)C2)n1` [Example 397, N-(2-fluoroethyl)-N-((4aS,6S)-1-(4-fluorophenyl)-4a-(4-fluoropicolinoyl)-4,4a,5,6,7,8-hexahydro-1H-benzo[f]indazol-6-yl)-1-methyl-1H-pyrazole-3-sulfonamide] cannot be ordered by IC50: at most 100 nM for the first, at most 100 nM for the second.

`Cn1cc(S(=O)(=O)N(CCF)[C@H]2CCC3=Cc4c(cnn4-c4ccc(F)cc4)C[C@]3(C(=O)c3ncc(C(F)(F)F)s3)C2)nn1` [Example 394, N-(2-fluoroethyl)-N-((4aS,6S)-1-(4-fluorophenyl)-4a-(5-(trifluoromethyl)thiazole-2-carbonyl)-4,4a,5,6,7,8-hexahydro-1H-benzo[f]indazol-6-yl)-1-methyl-1H-1,2,3-triazole-4-sulfonamide] and `Cn1cc(S(=O)(=O)N(CCF)[C@H]2CCC3=Cc4c(cnn4-c4ccc(F)cc4)C[C@]3(C(=O)c3ncc(C(F)(F)F)s3)C2)cn1` [Example 396, N-(2-fluoroethyl)-N-((4aS,6S)-1-(4-fluorophenyl)-4a-(5-(trifluoromethyl)thiazole-2-carbonyl)-4,4a,5,6,7,8-hexahydro-1H-benzo[f]indazol-6-yl)-1-methyl-1H-pyrazole-4-sulfonamide] cannot be ordered by IC50: at most 100 nM for the first, at most 100 nM for the second.

`Cn1cc(S(=O)(=O)N(CCF)[C@H]2CCC3=Cc4c(cnn4-c4ccc(F)cc4)C[C@]3(C(=O)c3cc(C(F)(F)F)ccn3)C2)nn1` [Example 395, N-(2-fluoroethyl)-N-((4aS,6S)-1-(4-fluorophenyl)-4a-(4-(trifluoromethyl)picolinoyl)-4,4a,5,6,7,8-hexahydro-1H-benzo[f]indazol-6-yl)-1-methyl-1H-1,2,3-triazole-4-sulfonamide] and `Cn1ccc(S(=O)(=O)N(CC(=O)O)[C@H]2CCC3=Cc4c(cnn4-c4ccc(F)cc4)C[C@]3(C(=O)c3cc(C(F)(F)F)ccn3)C2)n1` [Example 401, N-((4aS,6S)-1-(4-fluorophenyl)-4a-(4-(trifluoromethyl)picolinoyl)-4,4a,5,6,7,8-hexahydro-1H-benzo[f]indazol-6-yl)-N-((1-methyl-1H-pyrazol-3-yl)sulfonyl)glycine] cannot be ordered by IC50: at most 100 nM for the first, 100 to 1000 nM for the second.

`Cn1ccc(S(=O)(=O)N(C2CC2)[C@H]2CCC3=Cc4c(cnn4-c4ccc(F)nc4)C[C@]3(C(=O)c3ncc(C(F)(F)F)s3)C2)n1` [Example 399, N-cyclopropyl-N-((4aS,6S)-1-(6-fluoropyridin-3-yl)-4a-(5-(trifluoromethyl)thiazole-2-carbonyl)-4,4a,5,6,7,8-hexahydro-1H-benzo[f]indazol-6-yl)-1-methyl-1H-pyrazole-3-sulfonamide] and `Cn1ccc(S(=O)(=O)N(C2CC2)[C@H]2CCC3=Cc4c(cnn4-c4ccc(F)nc4)C[C@]3(C(=O)c3cc(C(F)(F)F)ccn3)C2)n1` [Example 402, N-cyclopropyl-N-((4aS,6S)-1-(6-fluoropyridin-3-yl)-4a-(4-(trifluoromethyl)picolinoyl)-4,4a,5,6,7,8-hexahydro-1H-benzo[f]indazol-6-yl)-1-methyl-1H-pyrazole-3-sulfonamide] cannot be ordered by IC50: at most 100 nM for the first, at most 100 nM for the second.

`Cn1ccc(S(=O)(=O)N(CC(=O)OC(C)(C)C)[C@H]2CCC3=Cc4c(cnn4-c4ccc(F)cc4)C[C@]3(C(=O)c3cc(C(F)(F)F)ccn3)C2)n1` [Example 400, tert-butyl N-((4aS,6S)-1-(4-fluorophenyl)-4a-(4-(trifluoromethyl)picolinoyl)-4,4a,5,6,7,8-hexahydro-1H-benzo[f]indazol-6-yl)-N-((1-methyl-1H-pyrazol-3-yl)sulfonyl)glycinate] and `COCCOCCN([C@H]1CCC2=Cc3c(cnn3-c3ccc(F)cc3)C[C@]2(C(=O)c2cc(C(F)(F)F)ccn2)C1)S(=O)(=O)c1ccc(F)cc1` [Example 404, 4-fluoro-N-((4aS,6S)-1-(4-fluorophenyl)-4a-(4-(trifluoromethyl)picolinoyl)-4,4a,5,6,7,8-hexahydro-1H-benzo[f]indazol-6-yl)-N-(2-(2-methoxyethoxy)ethyl)benzene-sulfonamide] cannot be ordered by IC50: at most 100 nM for the first, at most 100 nM for the second.
